Assay results published in ChEMBL document CHEMBL6078674, “Genome Mining of the Marine-Derived Fungus Trichoderma erinaceum F1-1 Unearths Bergamotene-Type Sesquiterpenoids” (J Nat Prod, 2024).

Columns and labels:
RKO = assay: Cytotoxicity against human RKO cells; type: functional, cell-based
RAW264.7 = assay: Antiinflammatory activity in mouse RAW264.7 cells; type: functional, cell-based
Staphylococcus aureus = assay: Antibacterial activity against methicillin-resistant Staphylococcus aureus; type: functional, organism-based
A549 = assay: Cytotoxicity against human A549 cells; type: functional, cell-based

Measured: IC50

CC(C)=CCC[C@]1(C)[C@@H]2C[C@H]1C(C)=C[C@H]2O[C@H]1O[C@H](CO)[C@@H](O)[C@H](O)[C@H]1O
> 50 µM: RKO | RAW264.7 | Staphylococcus aureus | A549

C/C(=C\CC[C@]1(C)[C@H]2CC(=O)[C@@H](C)[C@@H]1C2)CO
> 50 µM: RKO | RAW264.7 | Staphylococcus aureus | A549

C/C(=C\CC[C@]1(C)[C@H]2CC(=O)[C@](C)(O)[C@@H]1C2)CO
> 50 µM: RKO | RAW264.7 | Staphylococcus aureus | A549

CC(=O)[C@@H]1C[C@H](CC(=O)O)[C@@]1(C)CCC=C(C)C
> 50 µM: RKO | RAW264.7 | Staphylococcus aureus | A549

CC(C)=CCC[C@]1(C)[C@@H]2C[C@H]1[C@@](C)(O)C(=O)[C@H]2O
> 50 µM: RKO | RAW264.7 | Staphylococcus aureus | A549

CC(C)=CCC[C@]1(C)[C@@H]2C[C@H]1[C@@](C)(O)C(=O)C2=O
> 50 µM: RKO | RAW264.7 | Staphylococcus aureus | A549

CC(C)=CCC[C@]1(C)[C@H]2CC(=O)[C@](C)(O[C@H]3O[C@H](CO)[C@@H](O)[C@H](O)[C@H]3O)[C@@H]1C2
> 50 µM: RKO | RAW264.7 | Staphylococcus aureus | A549

C/C(=C\CC[C@]1(C)[C@H]2CC(=O)[C@](C)(O)[C@@H]1C2)C(=O)O
> 50 µM: RKO | RAW264.7 | Staphylococcus aureus | A549
